Values joined by “and” are separate entries in the source; they are usually repeats but may differ in a detail not shown here. Equal entries are not always repeated.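 Results reflect a 48-hour exposure of cells in 96-well plates to compound at five concentrations. The concentration for 50% growth inhibition is given as GI50. TGI is the concentration that stops growth completely.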

The subject of the first assay is SF-539 CNS. The assay is described as follows: growth of human tumour cells (NCI), 48 h.
Compound `O=C1c2ccccc2N2OC3(N4CCCC4)CCCC3C12c1ccccc1` (stereo not given) gave a TGI of more than 100 µM.

Turning to `CCC1(Br)C(=O)NC(=O)N(C2CC(O)C(CO)O2)C1N=[N+]=[N-]` (stereo not given), the TGI was more than 100 µM.

Consider `O=c1oc2ccccc2c(O)c1C=NC(=S)c1ccncc1`, for which the TGI is more than 100 µM.

Compound `O=[N+]([O-])c1ccc(N=Nc2c(O)[nH]c3ccc([N+](=O)[O-])cc23)cc1` displayed a TGI of 33.4 µM.

The compound `CC12CC3(C)CC(C)(C1)CC(N=[N+]=[N-])(C2)C3` gave a TGI of more than 100 µM.

For `N=C(N)SCc1cn2ccccc2n1`, the TGI is more than 100 µM.

`Clc1ccc([O][In]([O]c2ccc(Cl)cn2)[O]c2ccc(Cl)cn2)nc1`: the GI50 was more than 100 µM and the TGI was more than 100 µM.

The compound `Fc1cccc(Cl)c1C1SCc2nc3ccccc3n21` (stereo not given) yielded a TGI of 44.4 µM.

`COc1cc2nncc(Sc3cnnc4ccccc34)c2cc1OC` had a TGI of 51.7 µM.

Turning to `COC(=O)C1=CCON(c2ccccc2)C1c1ccccc1` (stereo not given), the TGI was more than 100 µM.

Regarding `Cc1cc(O)c2c(c1)C(O)(c1ccc3c(c1O)C(=O)c1c(O)cc(C)cc1C3(O)C1OC(CO)C(O)C(O)C1O)c1cccc(O)c1C2=O` (stereo not given), the TGI came out at 26.5 µM.

Turning to `COC(=O)c1nc(NN)[nH]c(=O)c1CCCCCc1c(C(=O)OC)[nH]c(NN)cc1=O`, the TGI was more than 100 µM.

As for `CC1(C)C(=O)C(O)=CC2C1=CCC1C2(C)C(=O)CC2(C)C(C(C)(O)C(=O)CC(O)C(C)(C)O)C(O)CC12C` (stereo not given), the TGI was 5.98 µM.

The compound `CCc1ccccc1NC(=O)C(=O)C(C(=O)c1ccc(OC)cc1)c1ccc(OC)cc1` (stereo not given) gave a TGI of more than 100 µM.

Compound `Cc1ccc(C(=O)Cc2nc3c([nH]c2=O)c(C)nn3-c2ccccc2)c(C)c1` yielded a TGI of more than 10 µM.

In the case of `C/C(=N/N(C=O)C[n+]1ccccc1)C(CN(CC(C)C)CC(C)C)C(=O)Nc1ccc(C)cc1C` (stereo not given), the TGI was more than 100 µM.

For `COc1cc(C2c3cc4c(cc3[C@@H](Nc3ccc(N(C)C)cc3)[C@H]3COC(=O)C23)OCO4)cc(OC)c1O` (stereo not given in full), the GI50 was 0.572 µM; the TGI is 1.62 µM and 2.41 µM.

In turn, `O=c1nc(-c2ccccc2)c2c3c(cccn13)CCC2` yielded a TGI of more than 100 µM.

Compound `COc1ccc([C@H]2CC(=O)N3CCCC3N2)cc1` (stereo not given in full) showed a TGI of more than 100 µM.

Consider `O=C(c1ccccc1)c1c(CC(O)c2cccnc2)n(C(=O)c2ccccc2)c2ccccc12` (stereo not given), for which the TGI worked out at 30.6 µM.

Compound `C=C(C)C1CC2C(C)=C(OC(C)=O)C1n1c(=O)c3cc4ccccc4cc3c(=O)n12` (stereo not given) yielded a TGI of more than 100 µM.

As to `O=C(CCc1nc(=S)[nH][nH]1)NC12CC3CC(CC(C3)C1)C2`, the TGI is more than 100 µM.

`CSc1nc2c(c(O)c(C)c(=O)n2C2OC(COC(C)=O)C(OC(C)=O)C(OC(C)=O)C2OC(C)=O)c(=O)n1C` (stereo not given) had a TGI of more than 100 µM.

As for `Cc1nc2c(n1CC(C)(C)C)C(=O)c1ccccc1C2=O`, the TGI is more than 100 µM.

`COc1ccc(C(C2=C(C)C(=O)c3ccccc3C2=O)c2ccc(C(C)C)cc(=O)c2O)cc1` (stereo not given): the TGI is 5.8 µM.

On to `CC(C)N(C(=O)C12C3C4C1C1C2C3C41C(O)C(C)(C)C)C(C)C` (stereo not given), for which the TGI was more than 50 µM.

The compound `Nc1c(C(=O)Nc2ccc([As](=O)(O)O)cc2)cnc2nnnn12` returned a TGI of more than 100 µM.

In the case of `N#CC(C#N)SCc1ccccc1`, the TGI was 13.1 µM.

On to `Cc1cc(N(CCNc2ccnc3cc(Cl)ccc23)Cc2ccc3c(c2)OCO3)nc(N2CCN(C)CC2)n1`, for which the GI50 is 1.78 µM and the TGI amounted to 3.33 µM.

Consider `Cc1c(C)c2cc3c(=O)ccoc3c(C)c2oc1=O`, for which the TGI is more than 100 µM.

The next assay deals with HCT-116 colon. The experiment in a line: growth of human tumour cells (NCI), 48 h.
For the compound `O=C1c2ccccc2N2OC3(N4CCCC4)CCCC3C12c1ccccc1` (stereo not given), the TGI is more than 100 µM.

Compound `COc1ccc(C2C(Cl)C(=O)N2n2cnc3ccccc3c2=O)cc1OC` (stereo not given) displayed a TGI of more than 100 µM.

As for `O=c1oc2ccccc2c(O)c1C=NC(=S)c1ccncc1`, the TGI is more than 100 µM.

In turn, `CC12CC3(C)CC(C)(C1)CC(N=[N+]=[N-])(C2)C3` yielded a TGI of more than 100 µM.

Compound `N=C(N)SCc1cn2ccccc2n1` returned a TGI of more than 100 µM.

Take `Clc1ccc([O][In]([O]c2ccc(Cl)cn2)[O]c2ccc(Cl)cn2)nc1`: the GI50 is more than 100 µM and the TGI is more than 100 µM.

`Fc1cccc(Cl)c1C1SCc2nc3ccccc3n21` (stereo not given): the TGI was found to be 55.1 µM.

`CC(=O)N(CCN)CCN` gave a TGI of more than 10 µM.

Compound `Cc1cc(O)c2c(c1)C(O)(c1ccc3c(c1O)C(=O)c1c(O)cc(C)cc1C3(O)C1OC(CO)C(O)C(O)C1O)c1cccc(O)c1C2=O` (stereo not given) displayed a TGI of 24.1 µM.

The compound `COC(=O)c1nc(NN)[nH]c(=O)c1CCCCCc1c(C(=O)OC)[nH]c(NN)cc1=O` showed a TGI of more than 100 µM.

For `CC1(C)C(=O)C(O)=CC2C1=CCC1C2(C)C(=O)CC2(C)C(C(C)(O)C(=O)CC(O)C(C)(C)O)C(O)CC12C` (stereo not given), the TGI is 33.7 µM.

The compound `CCc1ccccc1NC(=O)C(=O)C(C(=O)c1ccc(OC)cc1)c1ccc(OC)cc1` (stereo not given) had a TGI of more than 100 µM.

The compound `Cc1ccc(C(=O)Cc2nc3c([nH]c2=O)c(C)nn3-c2ccccc2)c(C)c1` registered a TGI of more than 10 µM.

Turning to `C/C(=N/N(C=O)C[n+]1ccccc1)C(CN(CC(C)C)CC(C)C)C(=O)Nc1ccc(C)cc1C` (stereo not given), the TGI was more than 100 µM.

For the compound `COc1cc(C2c3cc4c(cc3[C@@H](Nc3ccc(N(C)C)cc3)[C@H]3COC(=O)C23)OCO4)cc(OC)c1O` (stereo not given in full), the GI50 was 5.52 µM; the TGI was 11.7 µM and 20.2 µM.

Turning to `O=c1nc(-c2ccccc2)c2c3c(cccn13)CCC2`, the TGI was more than 100 µM.

Take `COc1ccc([C@H]2CC(=O)N3CCCC3N2)cc1` (stereo not given in full): the TGI was more than 100 µM.

Compound `O=C(c1ccccc1)c1c(CC(O)c2cccnc2)n(C(=O)c2ccccc2)c2ccccc12` (stereo not given) came in with a TGI of 30.8 µM.

`C=C(C)C1CC2C(C)=C(OC(C)=O)C1n1c(=O)c3cc4ccccc4cc3c(=O)n12` (stereo not given) displayed a TGI of more than 100 µM.

In turn, `O=C(CCc1nc(=S)[nH][nH]1)NC12CC3CC(CC(C3)C1)C2` came in with a TGI of more than 100 µM.

In turn, `CSc1nc2c(c(O)c(C)c(=O)n2C2OC(COC(C)=O)C(OC(C)=O)C(OC(C)=O)C2OC(C)=O)c(=O)n1C` (stereo not given) displayed a TGI of more than 100 µM.

Regarding `Cc1nc2c(n1CC(C)(C)C)C(=O)c1ccccc1C2=O`, the TGI was more than 100 µM.

`COc1ccc(C(C2=C(C)C(=O)c3ccccc3C2=O)c2ccc(C(C)C)cc(=O)c2O)cc1` (stereo not given) yielded a TGI of 14.7 µM.

For the compound `CC(C)N(C(=O)C12C3C4C1C1C2C3C41C(O)C(C)(C)C)C(C)C` (stereo not given), the TGI was more than 50 µM.

For `Nc1c(C(=O)Nc2ccc([As](=O)(O)O)cc2)cnc2nnnn12`, the TGI was more than 100 µM.

These data come from PubChem BioAssay (NCI).
